Assays:
MRSA [1] = test: Membrane depolarization study (diSC35 dye); assay type: cell-based, methicillin-resistant Staphylococcus aureus
Text: (§1) To probe the mechanism of antibacterial activity, we first carried out a membrane depolarization study with the membrane potential-sensitive dye 3,3′-dipropylthiadicarbocyanine iodide (diSC35) (Figure 2A,B). […] However, if the membrane is disrupted, and the fluorophore is released from the membrane, fluorescence will improve dramatically.

E. coli [2] = test: Time-kill kinetics study; assay type: cell-based; details: 4 × MIC and 8 × MIC, TSB medium
Protocol: (§2) To evaluate how rapidly bacteria could be eradicated, the lead compound YW-1 was examined for its ability to eradicate MRSA and E. coli by studying the time-kill kinetics.
(§3) Different concentrations of YW-1 and ciprofloxacin were mixed with 300 μL of mid-log phase bacterial solution in TSB medium. The mixture was incubated for 0, 10, and 30 min and 1 and 2 h, respectively. At the time, E. coli were diluted 100-fold, and the MRSA was diluted 100-fold. A total of 100 μL of each was transferred on TSB agar plates. After 16 h at 37 °C, CFUs were read using the Biotec multimode microplate reader.

E. coli [3] = test: Fluorescence microscopy (DAPI / PI staining); assay type: cell-based; details: 2 × MIC, 2 h at 37 °C, PI channel
Protocol: (§4) To further assess that the bacteria were killed with YW-1 by comprising the cell membrane, we conducted a fluorescence microscopy experiment. Two dyes, 4′,6-diamidino-2-phenylindole (DAPI) and propidium iodide (PI), were employed in this experiment. […] Instead, DAPI can be used to stain both dead and live cells because it is cell-permeable.
(§5) A total of 30 μL of mid-log phase bacterial solution was diluted to 3 mL in TSB medium with 2 × MIC of YW-1. The mixture was incubated for 2 h at 37 °C. Following this, the bacterial solution was centrifuged at 3000 rpm for 10 min. The top solution was thrown away, the bottom bacterial pellets were washed with PBS buffer, and PI (5 μg/mL) and DAPI (10 μg/mL) were added sequentially on ice under a dark environment. After dyeing with PI and DAPI, the bacterial cells were washed with PBS buffer. Immediately after 100 μL of PBS was added to suspend the bacterial cell, 10 μL of the suspended solution was dropped onto the slide, and data were obtained using a Zeiss Axiovert 200 inverted microscope.

Human red blood cells [4] = details: red cells of human, 1 h
Protocol: (§10) Human red blood cells were washed with 1 × PBS buffer, then centrifuged at 700 g for 10 min. After discarding the top clear solution, the bottom cells were diluted to obtain 5% solution using 1 × PBS buffer.
(§11) Then, 50 μL of cell solution was injected into 96-well plates. Following this, 50 μL of synthesized compounds with different concentrations from 250 to 1.95 μg/mL were added into 96-well plates. Then, the mixture was incubated for 1 h at 37 °C. After centrifuging at 3500× g rpm for 10 min, 30 μL of the supernatant was transferred into a new 96-well plate with 100 μL of 1 × PBS buffer. With the same microplate reader, the data of absorbance at 540 nm were compared. Positive control: 2% Triton-100. Calculation formula: percentage of hemolysis = [(Absorbance of sample-Absorbance of PBS)/(Absorbance of Triton-Absorbance of PBS)] × 100

E. coli [5] = test: Outer membrane (OM) permeabilization (NPN uptake); assay type: cell-based; details: 1 × MIC, compared with 1% Triton
Text: Next, using E. coli as a microorganism, we evaluated the OM permeabilization of YW-1. In aqueous conditions, 1-N-Phenylnaphthylamine (NPN) is blocked by the cell wall. However, if the OM is permeabilized, and NPN is taken up as a result, the fluorescence intensity will increase, compared to non-treated OM [13].

MRSE (RP62A) = assay type: cell-based; details: 16 h
Protocol: (§6) Chemical reagents and solvents were bought from Sigma Aldrich, Oakwood, TCI, and Chem-Impex. Final products were purified with Waters Breeze 2 HPLC and lyophilized using Labconco lyophilizer. HPLC traces of the final product were collected using 5–95% acetonitrile in water with 0.1% HPLC-grade TFA for at least 40 min. The nuclear magnetic resonance (NMR) data were collected using the Agilent 600 MHz NEO instrument. High-resolution mass spectra of compounds (Table S1) were collected using an Agilent Technologies 6540 UHD accurate-mass Q-TOF LC/MS spectrometer. Antibacterial assays and mechanism of action studies were performed using a Biotec multimode microplate reader synergy H4. Six different species of bacteria were used for bacteria assay tests, such as MRSA (ATCC 33591), MRSE (RP62A), VREF (ATCC 700802), E. coli (ATCC 25922), K. pneumoniae (ATCC 13383), and P. aeruginosa (ATCC 27853).
(§7) Concisely, E. coli, K. pneumoniae, P. aeruginosa, MRSA, MRSE, and VREF were cultivated in 37 °C TSB medium for 16 h. Subsequently, 4 ml of new TSB medium was added to 100 μL of cultivated bacterial solution and incubated for another 6 h to reach the mid-log phase. Next, 96-well plates were injected with 50 μL of bacterial solution that reached mid-log phase and 50 μL of compounds with different concentrations, which ranged from 0.75–25 μg/mL. Then, the 96-wells plates were incubated for another 16 h at 37 °C. After 16 h, MICs were determined by a multimode microplate reader.

E. coli (ATCC 25922) = assay type: cell-based; details: ATCC 25922, 16 h
Protocol: as §6, §7

[6] = tested on: K. pneumoniae (ATCC 13383); assay type: cell-based; details: ATCC 13383, 16 h
Protocol: as §6, §7

[7] = tested on: P. aeruginosa (ATCC 27853); assay type: cell-based; details: ATCC 27853, 16 h
Protocol: as §6, §7

E.F. (VREF, ATCC 700802) = assay type: cell-based; details: ATCC 700802, 16 h
Protocol: as §6, §7

Human red blood cells [8] = test: Hemolytic activity; details: HC50 over MIC against MRSA
Protocol: as §10, §11

E. coli [9] = test: Inner membrane (IM) permeabilization (ONPG hydrolysis assay); assay type: cell-based; details: 8 × MIC, 4 × MIC, 2 × MIC and 1 × MIC, 37 °C
Protocol: We next used the o-nitrophenyl-β-d-galactopyranoside (ONPG) hydrolysis assay to test the ability of the lead compound YW-1 to permeabilize the inner membrane of Gram-negative bacteria (Figure 3B). If the lead compound YW-1 compromised the bacterial inner membrane, ONPG would interact with the cytoplasmic enzyme β-galactosidase to form o-nitrophenol, which can be measured under OD 420 nm.
Mid-log phase E. coli was obtained in Mueller Hinton Broth with 2% lactose at 37 °C; then, it was centrifuged at 3000× g rpm for 10 min at 4 °C and washed with 20 mM glucose and 1.5 mM ONPG in […] HEPES buffer one time. Next, the bacterial solution was diluted until OD600 = 0.1 using the same buffer. Following this, 50 μL of diluted bacterial solution was injected into a 96-well plate, and 50 μL of YW-1 in different concentrations and melittin were injected into the bacterial solution, respectively. The OD420 was read at 37 °C every 6 min until the […] reached the highest plateau.

E. coli [10] = test: Transmission electron microscopy (TEM); assay type: cell-based; details: 2 × MIC, 2 h
Protocol: (§8) TEM microscopy offers convenient access to check the intactness of cell membranes. The cell membranes of MRSA and E. coli were intact.
(§9) An amount of 30 μL of mid-log phase MRSA and E. coli was diluted to 3 mL in TSB medium with 2 × MIC of YW-1, and the mixture was incubated for 2 h. The bacterial pellets were centrifuged at 3000× g rpm for 10 min. For the next step, PBS buffer was used to wash three times. Then, the suspended bacterial samples were dropped on grids and dried in a vacuum oven at 45 °C. TEM images were obtained using a FEI Morgagni 268D TEM, with an Olympus MegaView III CAMERA on the microscope, at 60 kV.

MRSA [11] = test: Fluorescence microscopy (DAPI / PI staining); assay type: cell-based, methicillin-resistant Staphylococcus aureus; details: 2 × MIC, 2 h at 37 °C, PI channel
Protocol: as §4, §5

MRSA [12] = test: Drug resistance study (serial passages); assay type: cell-based, methicillin-resistant Staphylococcus aureus; details: after 14 generations
Protocol: Since the abuse of antibiotics, antibacterial drug resistance has become an increasingly serious threat. Thus, it is of great importance to assess the drug resistance of newly developed lead compounds.
The first generation of MIC data of YW-1 against MRSA and E. coli was already obtained in an MIC study. Then, the MRSA of the first generation in the well next to the last clear well was diluted to the mid-log phase, and MICs were tested at 37 °C. This step was repeated for 14 passages. The data of drug resistance for E. coli were obtained using the same method with bacterial E. coli.

MRSA (ATCC 33591) = assay type: cell-based, methicillin-resistant Staphylococcus aureus; details: ATCC 33591, 16 h
Protocol: as §6, §7

MRSA [13] = test: Transmission electron microscopy (TEM); assay type: cell-based, methicillin-resistant Staphylococcus aureus; details: 2 × MIC, 2 h
Protocol: as §8, §9

MRSA [14] = test: Time-kill kinetics study; assay type: cell-based, methicillin-resistant Staphylococcus aureus; details: 4 × MIC and 8 × MIC, TSB medium
Protocol: as §2, §3

E. coli [15] = test: Membrane depolarization study (diSC35 dye); assay type: cell-based
Text: as §1

Q: Which “fluorescence intensity of diSC35 (membrane depolarization)” value (MRSA [1]; MRSA treated with different concentrations) does the source give for `CCCCCCCCCCCCCCCC(=O)N[C@@H](CC(C)C)CN(CC(N)=O)C(=O)CCN(C[C@@H](N)CCCCN)C(=O)CCN` [YW-1] here?
A: Its value is “dose-dependent increases in fluorescence intensity”.

Q: And the “fluorescence of diSC35 compared with positive control Triton” value (MRSA [1]; MRSA, at a two-fold of MIC or above)?
A: The value was “even more intensive fluorescence than the positive control Triton”.

Q: What about the “time to remove bacteria thoroughly” value (E. coli [2]) of the same molecule?
A: Its value is ≤ 2 h.

Q: What about the “PI staining (compromised membrane)” value (E. coli [3]) of the same molecule?
A: Its value is “red fluorescence was observed under the PI channel”.

Q: What about the HC50 (Human red blood cells [4]) of the same molecule?
A: The HC50 was >125 µg/mL.

Q: And the Outer membrane permeability (E. coli [5])?
A: The Outer membrane permeability was 98%.

Q: And the “MIC, Gram-Positive (+), MRSE” value (MRSE (RP62A))?
A: Its value is 1.5 to 3 µg/mL.

Q: And the “MIC, Gram-Negative (−), E. coli” value (E. coli (ATCC 25922))?
A: The value was 3.0 to 6.0 µg/mL.

Q: And the “MIC, Gram-Negative (−), K.P.” value [6]?
A: The value was 12.5 to 25 µg/mL.

Q: What about the “MIC, Gram-Negative (−), P.A.” value [7] of the same molecule?
A: Its value is 6 to 12.5 µg/mL.

Q: What about the “MIC, Gram-Positive (+), E.F.” value (E.F. (VREF, ATCC 700802)) of the same molecule?
A: Its value is 1.5 to 3 µg/mL.

Q: And the “Selectivity Index (HC50/MICMRSA)” value (Human red blood cells [8])?
A: Its value is >41.7.

Q: And the “inner membrane permeabilization, OD 420 nm intensity” value (E. coli [9])?
A: The value was “enhanced to a great extent”.

Q: What about the “membrane intactness by TEM” value (E. coli [10]) of the same molecule?
A: The value was “the membranes clearly demonstrated damages”.

Q: What about the “PI staining (compromised membrane)” value (MRSA [11]) of the same molecule?
A: The value was “red fluorescence was observed under the PI channel”.

Q: What about the “increase in MIC (drug resistance)” value (MRSA [12]) of the same molecule?
A: The value was “did not have an obvious change in MIC”.

Q: And the “MIC, Gram-Positive (+), MRSA” value (MRSA (ATCC 33591))?
A: The value was 1.5 to 3 µg/mL.

Q: And the “membrane intactness by TEM” value (MRSA [13])?
A: Its value is “the membranes clearly demonstrated damages”.

Q: What about the “time to remove bacteria thoroughly” value (MRSA [14]) of the same molecule?
A: Its value is ≤ 2 h.

Q: What about the “fluorescence intensity of diSC35 (membrane depolarization)” value (E. coli [15]; E. coli treated with different concentrations) of the same molecule?
A: The value was “dose-dependent increases in fluorescence intensity”.

Q: What about the “fluorescence of diSC35 compared with positive control Triton” value (E. coli [15]; E. coli, at a two-fold of MIC or above) of the same molecule?
A: Its value is “even more intensive fluorescence than the positive control Triton”.

Source: publication PMC10094648, “Short, Lipidated Dendrimeric γ-AApeptides as New Antimicrobial Peptidomimetics” (International Journal of Molecular Sciences, 2023)
